Converted amounts (≈) assume the structure as drawn. Where two headings read alike, the source gives them in different places.
Legend:
[1] = system: Plasmodium falciparum FCR3 (CQ,AT); experiment: [3H]hypoxanthine incorporation antimalarial assay, strain FCR3; assay type: cell-based; settings: FCR3, 72 h, read-out: IC50 FCR3 (CQ,AT)
Experimental: (§1) The activity of the test compounds against P. falciparum in vitro was determined using the tritiated hypoxanthine incorporation assay of Desjardins et al. and additionally modified by Milhous and Chulay (Chulay, Haynes, & Diggs, [1983]; Milhous, Weatherly, Bowdre, & Desjardins, [1985]).
(§2) Compounds were dissolved in DMSO and subsequently diluted in the culture medium (RPMI 1640) supplemented with 10% v/v human plasma. Serial 1:2 drug dilutions were prepared in triplicate in microtitre plates. Culture medium supplemented with 10% v/v human plasma and type A Rhesus positive human erythrocytes infected with P. falciparum strains was added to yield a haematocrit of 3% and a parasitaemia of 0.25–0.55%. The plates were incubated at 37°C in a modular incubator flushed with a mixture of 5% oxygen, 3% carbon dioxide, and 92% nitrogen for 48 h, and then [^3H]hypoxanthine was added to give a final concentration of 12.5–16 μCi·ml^−1. After incubation for additional 24 h, particulate matter was harvested on fibreglass strips and hypoxanthine incorporation determined by scintillation spectrophotometry. […] Delayed death experiments were performed by this standard method but extending the incubation time with the drug up to 96 h.

M. catarrhalis ATCC23246 = experiment: Antibacterial screen, broth microdilution; assay type: cell-based, Moraxella catarrhalis; settings: Moraxella catarrhalis, ATCC23246; broth microdilution
Experimental: (§3) Antibacterial activity of compounds was determined by a standard broth microdilution method (Clinical Laboratory Standard Institute CLSI, [2009]), except that for Streptococcus strains lysed blood was substituted with 5% horse serum in the testing medium. […] The activities are expressed as minimum inhibitory concentrations (MICs) in units of μg·ml^−1. […] The organisms tested represented macrolide sensitive Gram‐positive pathogens that are mainly targeted by macrolide antibiotics. Tested streptococci were clinical isolates Streptococcus pneumoniae SP030 and Streptococcus pyogenes 3565 from internal strain collection, and other strains were obtained from ATCC bioresource centre, Staphylococcus aureus ATCC13709, Haemophilus influenzae ATCC49247, and Moraxella catarrhalis ATCC23246. Double dilutions of tested compounds were prepared using TECAN Genesis 150. Bacteria were grown on appropriate agar plates (Becton Dickinson, USA)—Columbia agar with 5% sheep blood for streptococci and M. catarrhalis, Mueller‐Hinton chocolate agar for H. influenzae , and Mueller‐Hinton agar for staphylococci.

[2] = system: Plasmodium falciparum Dd2 (CQ,Q,PY,S); experiment: microbe, parasite or virus in culture; assay type: cell-based; settings: for Delayed death phenotype: Dd2 and Dd2(AZ^R), 48 versus 96 h; for IC50: Plasmodium falciparum
Experimental: as §1, §2

[3] = system: Plasmodium falciparum V1/S (CQ,PY); experiment: microbe, parasite or virus in culture; assay type: cell-based; settings: 72 h, read-out: IC50 V1/S (CQ,PY)
Experimental: as §1, §2

[4] = system: Plasmodium falciparum K1 (CQ,PY); experiment: [3H]hypoxanthine incorporation antimalarial assay, strain K1; assay type: cell-based
Experimental: as §1, §2

[5] = system: Plasmodium falciparum Dd2(AZ^R); experiment: [3H]hypoxanthine incorporation antimalarial assay, azithromycin-resistant mutant Dd2(AZ^R); assay type: cell-based
Experimental: as §1, §2

S. aureus ATCC13709 = experiment: Antibacterial screen, broth microdilution; assay type: cell-based; settings: Staphylococcus aureus
Experimental: as §3

H. influenzae ATCC49247 = experiment: Antibacterial screen, broth microdilution; assay type: cell-based; settings: Haemophilus influenzae
Experimental: as §3

S. pneumoniae SP030 = experiment: Antibacterial screen, broth microdilution; assay type: cell-based; settings: Streptococcus pneumoniae
Experimental: as §3

S. pyogenes 3565 = experiment: Antibacterial screen, broth microdilution; assay type: cell-based; settings: Streptococcus pyogenes
Experimental: as §3

[6] = Pharmacokinetics in P. falciparum infected and uninfected humanized mice; settings: for Cmax / Tmax: NODscidβ2m^−/−, mouse, whole blood, po, 12.5 mg/kg; for Cmax: C max, blood; for Cmax / Tmax / DNAUC(0–24): oral 12.5 mg·kg^−1, mean (SD); for Tmax: t max; for I/U (DNAUC infected versus uninfected): humanized mice, oral 12.5 mg·kg^−1
Experimental: For pharmacokinetic (PK) studies in mice, animals were dosed either by intravenous (i.v.) or oral (p.o.) route.
For studies performed in Swiss albino CD‐1 mice (Harlan Laboratories, Spain), in order to obtain simultaneous blood and plasma profiles and blood‐to‐plasma (B/P) ratio, PK was performed using terminal sampling of N = 3 animals per time point and data evaluated using composite analysis. For studies performed in P. falciparum infected and non‐infected NODscidβ2m^−/− mice (Charles River Laboratories, France), only whole blood was obtained by serial sampling of N = 3 animals using tail puncture.
For analysis of whole blood samples, 25 μl of fresh blood were mixed with 25 μl of saponin solution (0.1% in water) and immediately frozen on dry ice. Plasma was obtained by centrifugation of fresh blood at 2,500 g for 10 min. Both blood and plasma samples were stored frozen at −80°C until analysis.
Diluted blood and plasma samples were processed under standard liquid–liquid extraction procedures using acetonitrile containing internal standard (clarithromycin, 100 ng·ml^−1) and analysed by LC–MS/MS in positive ion mode with electrospray. Samples were assayed for parent compound using a Sciex API 4000 and Sciex API‐2000 Triple Quadrupole Mass Spectrometer (Sciex, Division of MDS Inc., Toronto, Canada), against a series of matrix matched calibration curve standards, using multiple reaction monitoring (MRM) at the specific transitions for each compound. Non‐compartmental analysis was performed using WinNonlin, version 4.1 (Pharsight, Mountain View, CA), and the main pharmacokinetic parameters were estimated.

[7] = system: Plasmodium falciparum W2 (chloroquine/pyrimethamine resistant); experiment: [3H]hypoxanthine incorporation antimalarial assay, strain W2; assay type: cell-based; settings: W2, 72 h, read-out: Plasmodium falciparum IC50 W2
Experimental: as §1, §2

[8] = DD2, 48 h, read-out: IC50 Dd2 48 h
[9] = DD2, 72 h, read-out: IC50 Dd2 (CQ,Q,PY,S)
[10] = DD2, 96 h, read-out: IC50 Dd2 96 h
[11] = DD2, 48 h, read-out: IC50 Dd2(AZ^R) 48 h
[12] = DD2, 96 h, read-out: IC50 Dd2(AZ^R) 96 h
[13] = K1, 72 h, read-out: IC50 K1 (CQ,PY)

| Structure (SMILES) | IC50 [1] [µM] | MIC (M. catarrhalis ATCC23246) [µg/mL] | Delayed death phenotype [2] | IC50 [2, 8] [µM] | IC50 [2, 9] [µM] | IC50 [2, 10] [µM] | IC50 [3] [µM] | IC50 [5, 11] [µM] | IC50 [5, 12] [µM] | MIC (S. aureus ATCC13709) [µg/mL] | MIC (H. influenzae ATCC49247) [µg/mL] | MIC (S. pneumoniae SP030) [µg/mL] | MIC (S. pyogenes 3565) [µg/mL] | Cmax ([6]; infected (I) humanized mice) [ng/mL] | Cmax ([6]; uninfected (U) humanized mice) [ng/mL] | Tmax ([6]; infected (I) humanized mice) [h] | Tmax ([6]; uninfected (U) humanized mice) [h] | I/U (DNAUC infected versus uninfected) [6] | DNAUC(0–24) ([6]; infected (I) humanized mice) | DNAUC(0–24) ([6]; uninfected (U) humanized mice) | other results |
| --- | --- | --- | --- | --- | --- | --- | --- | --- | --- | --- | --- | --- | --- | --- | --- | --- | --- | --- | --- | --- | --- |
| CC[C@H]1OC(=O)[C@H](C)[C@@H](O[C@H]2C[C@@](C)(OC)[C@@H](O)[C@H](C)O2)[C@H](C)[C@@H](O[C@@H]2O[C@H](C)C[C@H](N(C)C)[C@H]2O)[C@](C)(O)C[C@@H](C)CN(C)[C@H](C)[C@@H](O)[C@]1(C)O [Azithromycin, reference compound] | 2.59 | ≤ 0.125 | Yes | 3.27 | 1.59 | 0.081 | 15.9 | 3.36 | 1.49 | 1 (≈ 1.34 µM) | 2 (≈ 2.67 µM) | ≤ 0.125 | ≤ 0.125 | 344 | 243 | 1 | 1.67 | 1.1 | 161 (7) ng*h·ml^−1·mg^−1·kg^−1 | 146 (37) ng*h·ml^−1·mg^−1·kg^−1 | IC50 ([4]; K1, 72 h of incubation, N = 3, read-out: IC50 K1 (CQ,PY)): 2.72 µM |
| CC[C@H]1OC(=O)[C@H](C)[C@@H](O[C@H]2C[C@@](C)(OC)[C@@H](O)[C@H](C)O2)[C@H](C)[C@@H](O[C@@H]2O[C@H](C)C[C@H](N(C)C)[C@H]2O)[C@](C)(O)C[C@@H](C)CN(CCCNc2ccnc3cc(Cl)ccc23)[C@H](C)[C@@H](O)[C@]1(C)O [Compound 1] | 0.022 | 2 (≈ 2.1 µM) | No | 0.017 | 0.025 | 0.012 | 0.028 | 0.021 | 0.011 | 1 (≈ 1.05 µM) | 16 (≈ 16.8 µM) | ≤ 0.125 | ≤ 0.125 | 775 | 173 | 1 | 0.75 | 2.1 | 362 (68) ng*h·ml^−1·mg^−1·kg^−1 | 169 (33) ng*h·ml^−1·mg^−1·kg^−1 | IC50 [4, 13]: 0.023 µM; IC50 [7]: 0.027 µM |
| CC[C@H]1OC(=O)[C@H](C)[C@@H](O)[C@H](C)[C@@H](O[C@@H]2O[C@H](C)C[C@H](N(C)C)[C@H]2OCCCNc2ccnc3ccccc23)[C@](C)(O)C[C@@H](C)CN[C@H](C)[C@@H](O)[C@]1(C)O [Compound 3] | 0.022 | > 64 | No | 0.024 | 0.03 | 0.022 | 0.03 | 0.027 | 0.023 | > 64 | > 64 | > 64 | > 64 | 348 | 83.8 | 1.67 | 2.2 | 3.9 | 354 (129) ng*h·ml^−1·mg^−1·kg^−1 | 91 (85) ng*h·ml^−1·mg^−1·kg^−1 | IC50 [4, 13]: 0.024 µM; IC50 [7]: 0.027 µM |

Reference: publication PMC9328652, “A novel class of fast‐acting antimalarial agents: Substituted 15‐membered azalides” (British Journal of Pharmacology, 2020)
